Data from US8809341B2, “2,4-pyrimidinediamine compounds and uses as anti-proliferative agents” (Rigel Pharmaceuticals, Inc., priority 2003, dated 2014).
Like-named read-outs stand apart in the source and are kept apart here.

Experiments:
Format in all cases: cell-based
[1] = tested on: H1299 cells; test: in vitro antiproliferation assay, H1299 (lung)
Procedure, shortened: (§1)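 Standard in vitro antiproliferation assays on tumour cell lines, including A549 and H1299 (both lung); IC50 values determined.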

[2] = tested on: ACHN; test: in vitro antiproliferation assay, ACHN (kidney/p53 wt)
Description: (§2) The IC50 values of various compounds against a various different tumor cell lines were determined using standard in vitro antiproliferation assays. The tumor cell lines tested were as follows: A549 (lung); H1299 (lung), ACHN (kidney/p53 wt), CAKI (renal cell carcinoma), NCI-H460 (lung); HCT116 (colon/p53w0; HELA (cervix/p53 wt), HUH7 (liver/p53 wt), HUVEC (primary endothelial), LNCAP (prostate), HT-29 (colon); MCF-7 (breast); MCF-7 (breast/ER positive), MDA MB435S (breast); MDA MB231 (breast/ER negative), DU145 (prostate); BxPC-3 (pancreatic); SKOV-3 (ovarian); HepG2 (hepatic), NDHF primary normal human dermal fibroblast), SKMEL28 (breast/p53mut), SKMEL5 (breast/p53 wt), U20S (bone) and PC3 (prostate). […] A blank indicates the specified compound was not tested against the specified cell line.
(§3) Many of the compounds were tested against other cell lines. Their activity is reported in TABLE 15, below, where +”, “−”, “−/+” or “+/−” values are as described for TABLES 1-14. Where the cell line includes a value in a parenthetical, the value indicates the seeding density at which the assay was performed

[3] = tested on: SKMEL5; test: in vitro antiproliferation assay, SKMEL5
Description: as §2, §3

[4] = tested on: HCT116; test: in vitro antiproliferation assay, HCT116 (colon)
Procedure, shortened: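 Growth inhibition is measured in a standard in vitro antiproliferation assay and expressed as IC50.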

[5] = tested on: SKMEL28; test: in vitro antiproliferation assay, SKMEL28 (breast/p53mut)
Description: as §2, §3

[6] = tested on: CAKI; test: in vitro antiproliferation assay, CAKI (renal cell carcinoma)
Description: as §2, §3

[7] = tested on: A549 cells; test: in vitro antiproliferation assay, A549 (lung)
Procedure, shortened: as §1

[8] = tested on: HELA; test: in vitro antiproliferation assay, HELA (cervix/p53 wt)
Description: as §2, §3

[9] = tested on: MDA MB231; test: in vitro antiproliferation assay, MDA MB231 (breast/ER negative)
Description: as §2, §3

[10] = tested on: MCF-7; test: in vitro antiproliferation assay, MCF-7 (breast/ER positive)
Description: as §2, §3

[11] = tested on: PC3; test: in vitro antiproliferation assay, PC3 (prostate)
Description: as §2, §3

[12] = tested on: HUH7; test: in vitro antiproliferation assay, HUH7 (liver/p53 wt)
Description: as §2, §3

[13] = tested on: LNCAP; test: in vitro antiproliferation assay, LNCAP (prostate)
Description: as §2, §3

[14] = tested on: U20S; test: in vitro antiproliferation assay, U20S (bone)
Description: as §2, §3

[15] = tested on: NDHF; test: in vitro antiproliferation assay, NDHF (primary normal human dermal fibroblast)
Description: as §2, §3

[16] = tested on: HUVEC; test: in vitro antiproliferation assay, HUVEC (primary endothelial)
Description: as §2, §3

[17] = IC50 class against H1299 (lung) tumor cells
[18] = HCT116 (colon), read-out: HCT116
[19] = IC50 class against A549 (lung) tumor cells
[20] = MDA-MB-231, seeding density 2K, read-out: MDA-MB-231(2K)
[21] = MDA-MB-231, seeding density 4K, read-out: MDA-MB-231(4K)
[22] = MCF7, seeding density 2K, read-out: MCF7(2K)
[23] = MCF7, seeding density 4K, read-out: MCF7(4K)
[24] = Table 5, in vitro antiproliferation, H1299 (lung) cells
[25] = Table 5, in vitro antiproliferation, A549 (lung) cells
[26] = Table 7, in vitro antiproliferation, colon cells, read-out: HTC116
[27] = Table 7, in vitro antiproliferation, A549 (lung) cells
[28] = Table 7, in vitro antiproliferation, H1299 (lung) cells
[29] = H1299 (lung) cells, in vitro antiproliferation
[30] = A549 (lung) cells, in vitro antiproliferation
[31] = H1299 (lung) cells, antiproliferation
[32] = A549 (lung) cells, antiproliferation

SMILES | IC50 [2] | IC50 [3] | IC50 [4, 18] | IC50 [5] | IC50 [6] | IC50 [14] | IC50 [16] | other results
Fc1cnc(Nc2ccc(N3CCOCC3)cc2)nc1NC1CC1 [compound 101] | ≤ 20 µM | ≤ 20 µM | ≤ 20 µM | ≤ 20 µM | ≤ 20 µM |  |  | IC50 [1, 17]: ≤ 20 µM; IC50 [7, 19]: ≤ 20 µM
O=C(COc1cccc(Nc2ncc(F)c(NC3CC3)n2)c1)NC1CC1 [compound 102] | ≤ 20 µM | ≤ 20 µM | ≤ 20 µM | ≤ 20 µM | ≤ 20 µM |  |  | IC50 [1, 17]: ≤ 20 µM; IC50 [7, 19]: ≤ 20 µM
O=C(COc1cccc(Nc2ncc(F)c(NC3CC3)n2)c1)NC1CCC1 [compound 103] | ≤ 20 µM | ≤ 20 µM | ≤ 20 µM | ≤ 20 µM | ≤ 20 µM |  |  | IC50 [1, 17]: ≤ 20 µM; IC50 [7, 19]: ≤ 20 µM
CNC(=O)COc1cccc(Nc2ncc(F)c(NC3CC3)n2)c1 [compound 106] | ≤ 20 µM | ≤ 20 µM | ≤ 20 µM | ≤ 20 µM | ≤ 20 µM |  |  | IC50 [1, 17]: ≤ 20 µM; IC50 [7, 19]: ≤ 20 µM
CN1CCN(c2ccc(Nc3ncc(F)c(N(C)C4CCC4)n3)cc2)CC1 [compound 125] |  |  | ≤ 20 µM |  |  |  |  | IC50 [1, 17]: ≤ 20 µM; IC50 [8]: ≤ 20 µM; IC50 [9, 20]: ≤ 20 µM; IC50 [9, 21]: ≤ 20 µM; IC50 [7, 19]: ≤ 20 µM; IC50 [10, 22]: ≤ 20 µM; IC50 [10, 23]: ≤ 20 µM
CNC(=O)COc1cccc(Nc2ncc(F)c(Nc3ccc4c(c3)NC(=O)C(C)(C)O4)n2)c1 [compound 355] |  |  | > 20 µM |  |  |  |  | IC50 [11]: ≤ 20 µM; IC50 [12]: ≤ 20 µM
COc1c(C)cc(Nc2ncc(F)c(Nc3ccc4c(c3)NC(=O)C(C)(C)O4)n2)cc1Cl [compound 359] |  |  | > 20 µM |  |  |  |  | IC50 [12]: ≤ 20 µM
COc1cc(Nc2ncc(F)c(Nc3ccc4c(c3)OCCO4)n2)cc(OC)c1 [compound 512] | ≤ 20 µM | ≤ 20 µM | > 20 µM | ≤ 20 µM |  | ≤ 20 µM | ≤ 20 µM | IC50 [1, 24]: ≤ 20 µM; IC50 [13]: ≤ 20 µM; IC50 [11]: > 20 µM; IC50 [12]: ≤ 20 µM; IC50 [8]: ≤ 20 µM; IC50 [15]: ≤ 20 µM; IC50 [7, 25]: ≤ 20 µM
Cc1cc(Nc2ncc(F)c(Nc3ccc4c(c3)OCCO4)n2)cc(C(F)(F)F)c1 [compound 523] | ≤ 20 µM | ≤ 20 µM | > 20 µM | ≤ 20 µM |  | ≤ 20 µM | ≤ 20 µM | IC50 [1, 24]: ≤ 20 µM; IC50 [13]: ≤ 20 µM; IC50 [12]: ≤ 20 µM; IC50 [8]: ≤ 20 µM; IC50 [15]: ≤ 20 µM; IC50 [7, 25]: > 20 µM
O=C(c1cc2cc(Nc3ncc(F)c(Nc4ccc5c(c4)OCCO5)n3)ccc2o1)N1CCCNCC1 [compound 644] |  |  | ≤ 20 µM |  |  |  |  | IC50 [4, 26]: ≤ 20 µM; IC50 [11]: > 20 µM; IC50 [7, 27]: ≤ 20 µM
CCOC(=O)c1cc2cccc(Nc3ncc(F)c(Nc4cc(C)cc(C)c4)n3)c2[nH]1 [compound 646] | ≤ 20 µM | ≤ 20 µM | > 20 µM | ≤ 20 µM | ≤ 20 µM | ≤ 20 µM | ≤ 20 µM | IC50 [1, 28]: ≤ 20 µM; IC50 [13]: ≤ 20 µM; IC50 [4, 26]: ≤ 20 µM; IC50 [12]: ≤ 20 µM; IC50 [8]: ≤ 20 µM; IC50 [15]: ≤ 20 µM; IC50 [7, 27]: ≤ 20 µM
CNC(=O)c1cc2cccc(Nc3ncc(F)c(Nc4ccc5c(c4)OCCO5)n3)c2[nH]1 [compound 649] |  |  | > 20 µM |  |  | ≤ 20 µM | ≤ 20 µM | IC50 [13]: ≤ 20 µM; IC50 [4, 26]: ≤ 20 µM; IC50 [12]: ≤ 20 µM; IC50 [8]: ≤ 20 µM; IC50 [15]: ≤ 20 µM; IC50 [7, 27]: ≤ 20 µM
CNC(=O)c1cc2cccc(Nc3ncc(F)c(Nc4cc(OC)cc(OC)c4)n3)c2[nH]1 [compound 654] | ≤ 20 µM | ≤ 20 µM |  | ≤ 20 µM | ≤ 20 µM |  |  | IC50 [1, 28]: ≤ 20 µM; IC50 [7, 27]: ≤ 20 µM
COc1cc(Nc2ncc(F)c(Nc3ccc(Cl)c(Cl)c3)n2)cc(OC)c1 [compound 835] |  |  | ≤ 20 µM |  |  | ≤ 20 µM | ≤ 20 µM | IC50 [1, 29]: ≤ 20 µM; IC50 [7, 30]: ≤ 20 µM
Cc1cc(C)cc(Nc2ncc(F)c(Nc3ccc(Cl)c(Cl)c3)n2)c1 [compound 838] |  |  |  |  |  |  | > 20 µM | IC50 [1, 29]: > 20 µM; IC50 [7, 30]: ≤ 20 µM
COc1cc(Nc2nc(Nc3cc(C)cc(C)c3)ncc2F)cc(OC)c1 [compound 846] | ≤ 20 µM | ≤ 20 µM | ≤ 20 µM | ≤ 20 µM | ≤ 20 µM |  | ≤ 20 µM | IC50 [1, 29]: ≤ 20 µM; IC50 [7, 30]: ≤ 20 µM
COc1cc(OC)cc(N(C)c2nc(Nc3cc(C)cc(C)c3)ncc2F)c1 [compound 851] |  |  | ≤ 20 µM |  |  | ≤ 20 µM |  | IC50 [1, 29]: ≤ 20 µM; IC50 [8]: ≤ 20 µM; IC50 [7, 30]: ≤ 20 µM
COc1ccc(Nc2nc(Nc3cccc(-c4ncco4)c3)ncc2F)cc1OC [compound 858] | ≤ 20 µM | ≤ 20 µM | ≤ 20 µM | ≤ 20 µM |  | ≤ 20 µM |  | IC50 [1, 29]: ≤ 20 µM; IC50 [8]: ≤ 20 µM; IC50 [9, 20]: ≤ 20 µM; IC50 [9, 21]: ≤ 20 µM; IC50 [7, 30]: ≤ 20 µM; IC50 [10, 22]: ≤ 20 µM; IC50 [10, 23]: ≤ 20 µM
COc1ccc(N(C)c2nc(Nc3cccc(-c4ncco4)c3)ncc2F)cc1OC [compound 868] | ≤ 20 µM | ≤ 20 µM | ≤ 20 µM | ≤ 20 µM | ≤ 20 µM | ≤ 20 µM |  | IC50 [1, 29]: ≤ 20 µM; IC50 [7, 30]: ≤ 20 µM
COc1ccc(N(C)c2nc(Nc3ccc(-c4ncco4)cc3)ncc2F)cc1OC [compound 869] | ≤ 20 µM | ≤ 20 µM |  | ≤ 20 µM |  |  |  | IC50 [1, 29]: ≤ 20 µM; IC50 [7, 30]: ≤ 20 µM
COc1cc(Nc2nc(Nc3cccc(OCCO)c3)ncc2F)cc(OC)c1 [compound 940] |  |  | ≤ 20 µM |  |  |  |  | IC50 [1, 31]: ≤ 20 µM; IC50 [11]: ≤ 20 µM; IC50 [7, 32]: ≤ 20 µM
Cc1cc(Nc2ncc(F)c(Nc3cc(C)c(O)c(Cl)c3)n2)cc(Cl)c1O [compound 942] | ≤ 20 µM | ≤ 20 µM | ≤ 20 µM | ≤ 20 µM | ≤ 20 µM | ≤ 20 µM | ≤ 20 µM | IC50 [1, 31]: ≤ 20 µM; IC50 [13]: ≤ 20 µM; IC50 [12]: ≤ 20 µM; IC50 [8]: ≤ 20 µM; IC50 [15]: ≤ 20 µM; IC50 [7, 32]: ≤ 20 µM
Cc1cc(Nc2nc(Nc3cccc(OCCN4CCOCC4)c3)ncc2F)cc(C)c1O [compound 949] |  |  | ≤ 20 µM | ≤ 20 µM |  |  |  | IC50 [1, 31]: ≤ 20 µM; IC50 [11]: ≤ 20 µM; IC50 [7, 32]: ≤ 20 µM
Cc1cc(Nc2nc(Nc3cccc(OCCN4CCNCC4)c3)ncc2F)cc(Cl)c1O [compound 984] |  |  | ≤ 20 µM |  |  |  |  | IC50 [11]: ≤ 20 µM; IC50 [7, 32]: ≤ 20 µM
CNC(=O)COc1cccc(Nc2ncc(F)c(Nc3ccc(Cl)c(Cl)c3)n2)c1 [compound 1006] |  |  |  |  |  |  | ≤ 20 µM | IC50 [1, 31]: ≤ 20 µM; IC50 [7, 32]: ≤ 20 µM
Cc1cc(C)cc(Nc2ncc(F)c(N(C)c3ccc(Cl)c(Cl)c3)n2)c1 [compound 1007] |  |  |  |  |  |  | > 20 µM | IC50 [1, 31]: > 20 µM; IC50 [7, 32]: > 20 µM
COc1cc(Nc2ncc(F)c(N(C)c3ccc(Cl)c(Cl)c3)n2)cc(OC)c1 [compound 1009] |  |  |  |  |  |  | ≤ 20 µM | IC50 [1, 31]: > 20 µM; IC50 [7, 32]: > 20 µM
